Data published in patent US20100242341A1, “CORROSION AND MICROBIAL CONTROL IN HYDROCARBONACEOUS COMPOSITIONS” (priority 2007, published 2010).

How the values were obtained:
Assay type in all cases: cell-based
[1] = tested on: Hormoconis resinae ATCC# 20495; experiment: Microbial resistance of fuel, plate count
Protocol: (§1) Bacteria. Pseudomonas aeruginosa ATCC# 33988, Yeast: Yarrowia tropicalis ATCC# 48138, and Mold: Hormoconis resinae ATCC# 20495, are sub cultured in Bushnell-Haas broth, and used for the mixed inoculum. The organism concentrations in the mixed inoculum are as follows: Ps. aeruginosa-4.8×10^8 cfu/mL; Y. tropicalis-2.2×10^7 cfu/mL; H. resinae-6.3×10^7 cfu/mL
(§2) Testing is carried out in glass bottles with bakelite screw tops for four weeks. For each fuel sample, the aminoalcohol and then the biocide when present are added at the desired loadings to 130 mL of either diesel or biodiesel fuel with agitation for 5 min. Bushnell-Haas broth (24 mL) is added as the aqueous phase below the diesel fuel. One mL of the mixed inoculum is added. The samples are mixed weekly by turning the bottle upside down 5 times. The organism count listed for day 0 represents the initial organism populations detected in the water bottom after mixing the water bottom and the fuel.
(§3) Microbial survival is measured using the plate count method. Tryptic soy agar is used for Pseudomonas aeruginosa, and Sabouraud dextrose agar with 0.5 ug/ml gentamycin for Yarrowia tropicalis, and bacteriological grade agar 1.5%, with 0.01% potassium tellurite for Hormoconis resinae. Bacteria are incubated at 37° C. for 48 hours, and fungi at 25° C. for 5-7 days.

[2] = tested on: Pseudomonas aeruginosa ATCC# 33988; experiment: Microbial resistance of fuel, plate count
Protocol: as §1, §2, §3

[3] = tested on: Yarrowia tropicalis ATCC# 48138; experiment: Microbial resistance of fuel, plate count
Protocol: as §1, §2, §3

[4] = tested on: mixed inoculum (Ps. aeruginosa, Y. tropicalis, H. resinae); experiment: Microbial resistance of fuel, mixed inoculum (overall statements); conditions: diesel fuel
Protocol: as §1, §2, §3

[5] = diesel, aminoalcohol 1500 ppm, Day 0
[6] = diesel, aminoalcohol 1500 ppm, Wk 1
[7] = diesel, aminoalcohol 1500 ppm, Wk 2
[8] = diesel, aminoalcohol 1500 ppm, Wk 3
[9] = diesel, aminoalcohol 1500 ppm, Wk 4
[10] = diesel, aminoalcohol 3000 ppm, Day 0
[11] = diesel, aminoalcohol 3000 ppm, Wk 1
[12] = diesel, aminoalcohol 3000 ppm, Wk 2
[13] = diesel, aminoalcohol 3000 ppm, Wk 3
[14] = diesel, aminoalcohol 3000 ppm, Wk 4
[15] = biodiesel, 3A40 1500 ppm, Week 1
[16] = biodiesel, 3A40 1500 ppm, Week 2
[17] = biodiesel, 3A40 1500 ppm, Week 3
[18] = biodiesel, 3A40 1500 ppm, Week 4
[19] = biodiesel, 3A40 3000 ppm, Week 1
[20] = biodiesel, 3A40 3000 ppm, Week 2
[21] = biodiesel, 3A40 3000 ppm, Week 3
[22] = biodiesel, 3A40 3000 ppm, Week 4

Work on `CC(C)(N)CO` [AMP, 2-Amino-2-methyl-1-propanol, reference compound] yielded a H. resinae count [1, 5] of 4.2E5, a H. resinae count [1, 6] of 3.0E5 and a H. resinae count [1, 7] of 6.4E5. It also gave a H. resinae count [1, 8] of 7.4E5, a H. resinae count [1, 9] of 1.8E6 and a H. resinae count [1, 10] of 4.2E5. For the same molecule, the H. resinae count [1, 11] was 1.2E5, the H. resinae count [1, 12] was 4.5E5 and the H. resinae count [1, 13] was 5.8E5. The H. resinae count [1, 14] was 3.3E6, the Ps. aeruginosa count [2, 5] was 1.4E6 and the Ps. aeruginosa count [2, 6] was 8.7E5. It also gave a Ps. aeruginosa count [2, 7] of 2.3E6, a Ps. aeruginosa count [2, 8] of 4.4E6 and a Ps. aeruginosa count [2, 9] of 1.2E7. For the same molecule, the Ps. aeruginosa count [2, 10] was 1.4E6, the Ps. aeruginosa count [2, 11] was 2.2E6 and the Ps. aeruginosa count [2, 12] was 4.0E6. The Ps. aeruginosa count [2, 13] was 6.0E6, the Ps. aeruginosa count [2, 14] was 4.2E7 and the Y. tropicalis count [3, 5] was 3.3E5. The Y. tropicalis count [3, 6] was 1.3E5, the Y. tropicalis count [3, 7] was 7.2E5 and the Y. tropicalis count [3, 8] was 1.3E6. For the same molecule, the Y. tropicalis count [3, 9] was 7.0E6, the Y. tropicalis count [3, 10] was 3.3E5 and the Y. tropicalis count [3, 11] was 9.0E4. It also gave a Y. tropicalis count [3, 12] of 2.3E5, a Y. tropicalis count [3, 13] of 5.2E5 and a Y. tropicalis count [3, 14] of 4.3E6.
For `CCCCC(O)C(N)CC` (centres unmarked) [Example 3A4O, 3-amino-4-octanol], the H. resinae count [1, 15] was under 1.0E2, the H. resinae count [1, 16] was under 1.0E2 and the H. resinae count [1, 17] was under 1.0E2. For the same molecule, the H. resinae count [1, 18] was under 1.0E2, the H. resinae count [1, 19] was under 1.0E2 and the H. resinae count [1, 20] was under 1.0E2. It also gave a H. resinae count [1, 21] of under 1.0E2, a H. resinae count [1, 22] of under 1.0E2 and a H. resinae count [1, 5] of 4.2E5. For the same molecule, the H. resinae count [1, 6] was 2.7E5, the H. resinae count [1, 7] was 3.8E5 and the H. resinae count [1, 8] was 7.7E5. The H. resinae count [1, 9] was 4.4E6, the H. resinae count [1, 10] was 4.2E5 and the H. resinae count [1, 11] was 3.5E5. The H. resinae count [1, 12] was 6.7E5, the H. resinae count [1, 13] was 8.2E5 and the H. resinae count [1, 14] was 6.0E6. For the same molecule, the “Ps. aeruginosa count” value [2, 15] was under 1.0E2, the “Ps. aeruginosa count” value [2, 16] was under 1.0E2 and the “Ps. aeruginosa count” value [2, 17] was under 1.0E2. For the same molecule, the “Ps. aeruginosa count” value [2, 18] was under 1.0E2, the “Ps. aeruginosa count” value [2, 19] was under 1.0E2 and the “Ps. aeruginosa count” value [2, 20] was under 1.0E2. The “Ps. aeruginosa count” value [2, 21] was under 1.0E2, the “Ps. aeruginosa count” value [2, 22] was under 1.0E2 and the synergy with biocide ([2]; diesel fuel, with BIT, against Ps. Aeruginosa (FIG. 3)) was “not significant”. The Ps. aeruginosa count [2, 5] was 1.4E6, the Ps. aeruginosa count [2, 6] was 1.7E6 and the Ps. aeruginosa count [2, 7] was 4.2E6. The Ps. aeruginosa count [2, 8] was 7.3E6, the Ps. aeruginosa count [2, 9] was 4.8E7 and the Ps. aeruginosa count [2, 10] was 1.4E6. The Ps. aeruginosa count [2, 11] was 8.7E5, the Ps. aeruginosa count [2, 12] was 2.0E6 and the Ps. aeruginosa count [2, 13] was 5.7E6. For the same molecule, the Ps. aeruginosa count [2, 14] was 2.3E7, the Y. tropicalis count [3, 15] was under 1.0E2 and the Y. tropicalis count [3, 16] was under 1.0E2. For the same molecule, the Y. tropicalis count [3, 17] was under 1.0E2, the Y. tropicalis count [3, 18] was under 1.0E2 and the Y. tropicalis count [3, 19] was under 1.0E2. It also gave a Y. tropicalis count [3, 20] of under 1.0E2, a Y. tropicalis count [3, 21] of under 1.0E2 and a Y. tropicalis count [3, 22] of under 1.0E2. The synergy with biocide ([3]; diesel fuel, with BIT, Y. tropicalis) was “evident”, the Y. tropicalis count [3, 5] was 3.3E5 and the Y. tropicalis count [3, 6] was 1.1E5. For the same molecule, the Y. tropicalis count [3, 7] was 8.0E5, the Y. tropicalis count [3, 8] was 2.2E6 and the Y. tropicalis count [3, 9] was 8.3E6. For the same molecule, the Y. tropicalis count [3, 10] was 3.3E5, the Y. tropicalis count [3, 11] was 2.0E5 and the Y. tropicalis count [3, 12] was 6.3E5. For the same molecule, the Y. tropicalis count [3, 13] was 3.0E6, the Y. tropicalis count [3, 14] was 1.2E7 and the synergy with biocide ([4]; with FUELSAVER (FIG. 1)) was “particularly synergistic”. The synergy with biocide ([4]; with Kathon (CMIT/MIT) (FIG. 2)) was “more evident early on in the testing and then appears to taper off with time” and the synergy with biocide ([4]; with the three biocides evaluated) was “Synergy, however, is observed”.
